Experimental data reported in US20100305113A1, “Substituted Imidazopyridazines as Lipid Kinase Inhibitors” (priority 2007, published 2010).

Experiments:
Format in all cases: biochemical
Settings in all cases: Enzymatic Data
PI3K delta = target: T1, PI3K delta (Homo sapiens, UniProt O00329); assay: PI3K delta enzymatic assay (Kinase-Glo luminescence)
T1 construct: for the full-length p110-d subunit are generated and fused by overlapping PCR; p85(iSH2) fusion partner (same polypeptide; see partner chain) (N); Gly linker (N); His tag (C); made in house; host or cells: baculovirus; Tn5 (Trichoplusia ni) or TiniPro insect cells
T1 sequence (O00329 with tags, fused parts or gaps limits assumed): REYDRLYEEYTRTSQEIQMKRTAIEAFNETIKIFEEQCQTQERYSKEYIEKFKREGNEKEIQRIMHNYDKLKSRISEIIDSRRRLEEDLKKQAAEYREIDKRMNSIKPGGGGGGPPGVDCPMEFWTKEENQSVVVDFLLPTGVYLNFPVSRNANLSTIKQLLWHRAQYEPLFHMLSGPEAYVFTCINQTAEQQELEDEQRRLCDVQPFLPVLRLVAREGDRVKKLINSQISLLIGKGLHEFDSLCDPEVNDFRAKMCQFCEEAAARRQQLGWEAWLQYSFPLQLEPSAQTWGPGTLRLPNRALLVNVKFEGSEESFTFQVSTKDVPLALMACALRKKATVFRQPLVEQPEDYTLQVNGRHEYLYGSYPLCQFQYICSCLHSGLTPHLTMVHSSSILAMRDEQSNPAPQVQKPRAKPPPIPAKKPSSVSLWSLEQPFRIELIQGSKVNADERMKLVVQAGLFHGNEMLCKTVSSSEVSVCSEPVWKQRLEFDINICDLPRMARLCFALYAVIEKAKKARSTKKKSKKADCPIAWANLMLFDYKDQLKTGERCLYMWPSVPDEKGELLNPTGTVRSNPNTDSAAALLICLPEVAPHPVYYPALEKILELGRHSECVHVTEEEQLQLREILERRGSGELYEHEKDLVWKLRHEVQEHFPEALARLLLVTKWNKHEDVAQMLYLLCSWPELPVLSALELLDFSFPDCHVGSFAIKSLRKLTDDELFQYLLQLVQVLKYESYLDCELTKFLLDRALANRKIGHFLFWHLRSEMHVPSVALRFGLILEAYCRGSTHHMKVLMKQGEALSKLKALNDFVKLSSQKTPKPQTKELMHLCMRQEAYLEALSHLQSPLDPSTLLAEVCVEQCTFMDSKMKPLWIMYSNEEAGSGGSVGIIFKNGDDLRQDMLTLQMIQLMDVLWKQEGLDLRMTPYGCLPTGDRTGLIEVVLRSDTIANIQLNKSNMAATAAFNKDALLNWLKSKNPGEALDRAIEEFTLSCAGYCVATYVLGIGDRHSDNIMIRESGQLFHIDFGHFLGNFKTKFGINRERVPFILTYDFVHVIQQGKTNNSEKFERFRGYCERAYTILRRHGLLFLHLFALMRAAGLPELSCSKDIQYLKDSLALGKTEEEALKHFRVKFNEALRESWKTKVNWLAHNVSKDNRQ
Procedure: (§1) In a more preferred assay, the kinase reaction is performed in a final volume of 10 μL per well of a low volume non binding CORNING, 384 well black plate (Cat. No. #3676). The final concentrations of ATP and phosphatidyl inositol (PI) in the assay are 1 μM and 10 μg/mL respectively. The reaction is started by the addition of ATP.
(§2) The components of the assay are added per well as follows:
(§3) 50 nL test compounds in 90% DMSO per well, in columns 1-20, 8 concentrations (⅓ and 1/3.33 serial dilution step) in single. • Low control: 50 nL of 90% DMSO in half the wells of columns 23-24 (0.45% in final). • High control: 50 nL of reference compound (e.g. compound of Example 7 in WO 2006/122806, incorporated by reference herein that regard) in the other half of columns 23-24 (2.5 μM in final). • Standard: 50 nL of reference compound as just mentioned diluted as the test compounds in columns 21-22 • 20 mL ‘buffer’ are prepared per assay: • 200 μL of 1M TRIS HCl pH7.5 (10 mM in final) • 60 μL of 1M MgCl2 (3 mM in final) • 500 μL of 2M NaCl (50 mM in final) • 100 μL of 10% CHAPS (0.05% in final) • 200 μL of 100 mM DTT (1 mM in final) • 18.94 mL of nanopure water • 10 mL ‘PI’ are prepared per assay: • 200 μL of 1 mg/ml L-alpha-Phosphatidylinositol (Liver Bovine, Avanti Polar Lipids Cat. No. 840042C MW=909.12) prepared in 3% OctylGlucoside ([…]) • 9.8 mL of ‘buffer’ • 10 mL ‘ATP’ are prepared per assay: • 6.7 μL of 3 mM stock of ATP giving a final concentration of 1 μM per well • 10 mL of ‘buffer’ • 2.5 mL of each PI3K construct are prepared per assay in ‘PI’ with the following final concentration: • 10 nM PI3K alfa BV-1075 • 25 nM beta BV-949 • 10 nM delta BV-1060 • 150 nM gamma BV-950 • 5 μL of ‘PI/PI3K’ are added per well. • 5 μl ‘ATP’ are added per well to start the reaction. • The plates are then incubated at room temperature for 60 minutes (alfa, beta, delta) or 120 minutes (gamma). • The reaction is terminated by the addition of 10 μL Kinase-Glo (Promega Cat. No. #6714). • The assay plates are read after 10 minutes in Synergy 2 reader (BioTek, Vermont USA) with an integration time of 100 milliseconds and sensitivity set to 191. • Output: The High control is around 60′000 counts and the Low control is 30′000 or lower • This luminescence assay gives a useful Z′ ratio between 0.4 and 0.7 The Z′ value is a universal measurement of the robustness of an assay. A Z′ between 0.5 and 1.0 is considered an excellent assay.
PI3Kδ BV-1060 p85(iSH2)-Gly Linker-p110d (Full-Length)-C-term His Tact
(§4) IC50 is determined by a four parameter curve fitting routine that comes aloneg with “excel fit”. A 4 Parameter logistic equation is used to calculate IC50 values (IDBS XLfit) of the percentage inhibition of each compound at 8 concentrations (usually 10, 3.0, 1.0, 0.3, 0.1, 0.030, 0.010 and 0.003 μM). Alternatively, IC50 values are calculated using idbsXLfit model 204, which is a 4 parameter logistic model.

PI3K gamma = target: T2, PI3K gamma (Homo sapiens, UniProt P48736); assay: PI3K gamma enzymatic assay (Kinase-Glo luminescence)
T2 construct: His tag (C); made in house; host or cells: construct from Roger Williams lab (MRC LMB); baculovirus (pVL1393); Tn5 (Trichoplusia ni) or TiniPro insect cells
T2 sequence (P48736 144-1102 limits assumed): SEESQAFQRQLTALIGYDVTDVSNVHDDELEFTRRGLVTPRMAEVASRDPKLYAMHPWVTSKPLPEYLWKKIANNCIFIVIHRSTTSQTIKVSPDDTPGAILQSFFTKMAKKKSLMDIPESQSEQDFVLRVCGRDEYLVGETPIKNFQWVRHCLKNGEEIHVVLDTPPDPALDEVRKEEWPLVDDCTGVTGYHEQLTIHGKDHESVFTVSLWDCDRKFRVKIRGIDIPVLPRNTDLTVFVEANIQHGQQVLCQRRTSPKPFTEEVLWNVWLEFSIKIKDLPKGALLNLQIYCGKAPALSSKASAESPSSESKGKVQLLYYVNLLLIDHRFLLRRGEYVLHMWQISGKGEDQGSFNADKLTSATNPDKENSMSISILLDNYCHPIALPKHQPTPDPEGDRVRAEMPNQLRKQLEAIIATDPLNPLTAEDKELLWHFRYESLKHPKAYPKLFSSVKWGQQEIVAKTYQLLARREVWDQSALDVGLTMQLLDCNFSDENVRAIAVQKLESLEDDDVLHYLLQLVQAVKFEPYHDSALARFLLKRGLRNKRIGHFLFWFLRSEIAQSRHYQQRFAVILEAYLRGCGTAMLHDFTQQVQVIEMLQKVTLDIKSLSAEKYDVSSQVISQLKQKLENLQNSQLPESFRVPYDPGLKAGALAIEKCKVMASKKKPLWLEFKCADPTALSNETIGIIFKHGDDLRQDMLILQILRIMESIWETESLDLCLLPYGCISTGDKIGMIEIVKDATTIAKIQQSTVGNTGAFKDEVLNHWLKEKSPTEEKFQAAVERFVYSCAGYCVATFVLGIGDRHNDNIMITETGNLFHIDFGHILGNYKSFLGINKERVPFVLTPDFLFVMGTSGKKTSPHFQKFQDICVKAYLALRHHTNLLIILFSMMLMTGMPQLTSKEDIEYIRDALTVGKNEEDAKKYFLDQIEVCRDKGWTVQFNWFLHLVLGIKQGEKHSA
Procedure: as §1, §2, §3, §4

PI3K alfa = target: T3, PI3K alfa (Homo sapiens, UniProt P42336); assay: PI3K alfa enzymatic assay (Kinase-Glo luminescence)
T3 construct: p85(iSH2) fusion partner (same polypeptide; see partner chain) (N); 12x Gly linker (N); His tag (C); made in house; host or cells: baculovirus; Tn5 (Trichoplusia ni) or TiniPro insect cells
T3 sequence (P42336 with tags, fused parts or gaps limits assumed): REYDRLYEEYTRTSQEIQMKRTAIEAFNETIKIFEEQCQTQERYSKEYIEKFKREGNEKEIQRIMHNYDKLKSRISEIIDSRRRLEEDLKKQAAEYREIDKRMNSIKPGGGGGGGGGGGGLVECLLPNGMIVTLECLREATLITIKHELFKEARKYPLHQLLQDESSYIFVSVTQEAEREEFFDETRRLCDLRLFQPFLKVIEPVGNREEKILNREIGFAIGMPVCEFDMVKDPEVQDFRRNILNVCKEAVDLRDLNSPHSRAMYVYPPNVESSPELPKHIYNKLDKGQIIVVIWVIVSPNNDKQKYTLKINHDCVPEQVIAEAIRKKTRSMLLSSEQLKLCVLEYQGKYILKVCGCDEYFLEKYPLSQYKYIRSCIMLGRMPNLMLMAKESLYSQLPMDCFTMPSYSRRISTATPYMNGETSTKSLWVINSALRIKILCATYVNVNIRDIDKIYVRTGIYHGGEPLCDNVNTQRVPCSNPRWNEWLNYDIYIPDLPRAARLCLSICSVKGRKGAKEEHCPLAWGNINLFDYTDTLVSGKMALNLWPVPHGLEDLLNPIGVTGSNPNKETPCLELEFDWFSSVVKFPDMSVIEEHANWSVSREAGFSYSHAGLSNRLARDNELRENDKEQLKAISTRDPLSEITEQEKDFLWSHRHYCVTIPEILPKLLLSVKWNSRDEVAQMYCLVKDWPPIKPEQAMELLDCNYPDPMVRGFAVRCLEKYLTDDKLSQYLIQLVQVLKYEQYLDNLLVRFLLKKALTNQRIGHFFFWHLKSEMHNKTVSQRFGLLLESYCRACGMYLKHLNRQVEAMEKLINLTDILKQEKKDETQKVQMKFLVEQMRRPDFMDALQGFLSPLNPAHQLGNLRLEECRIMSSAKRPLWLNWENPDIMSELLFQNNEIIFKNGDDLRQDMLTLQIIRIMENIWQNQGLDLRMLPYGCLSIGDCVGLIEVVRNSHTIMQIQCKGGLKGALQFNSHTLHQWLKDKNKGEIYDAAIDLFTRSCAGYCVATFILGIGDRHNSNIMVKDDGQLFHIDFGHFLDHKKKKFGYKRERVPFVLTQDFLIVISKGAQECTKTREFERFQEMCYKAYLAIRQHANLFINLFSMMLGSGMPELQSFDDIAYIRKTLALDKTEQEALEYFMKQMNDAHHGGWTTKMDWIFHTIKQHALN
Procedure: as §1, §2, §3, §4

PI3K beta = target: T4, PI3K beta (Homo sapiens, UniProt P42338); assay: PI3K beta enzymatic assay (Kinase-Glo luminescence)
T4 construct: for the full-length p110-b subunit are generated and fused by overlapping PCR; p85(iSH2) fusion partner (same polypeptide; see partner chain) (N); Gly linker (N); His tag (C); made in house; host or cells: baculovirus; Tn5 (Trichoplusia ni) or TiniPro insect cells
T4 sequence (P42338 with tags, fused parts or gaps limits assumed): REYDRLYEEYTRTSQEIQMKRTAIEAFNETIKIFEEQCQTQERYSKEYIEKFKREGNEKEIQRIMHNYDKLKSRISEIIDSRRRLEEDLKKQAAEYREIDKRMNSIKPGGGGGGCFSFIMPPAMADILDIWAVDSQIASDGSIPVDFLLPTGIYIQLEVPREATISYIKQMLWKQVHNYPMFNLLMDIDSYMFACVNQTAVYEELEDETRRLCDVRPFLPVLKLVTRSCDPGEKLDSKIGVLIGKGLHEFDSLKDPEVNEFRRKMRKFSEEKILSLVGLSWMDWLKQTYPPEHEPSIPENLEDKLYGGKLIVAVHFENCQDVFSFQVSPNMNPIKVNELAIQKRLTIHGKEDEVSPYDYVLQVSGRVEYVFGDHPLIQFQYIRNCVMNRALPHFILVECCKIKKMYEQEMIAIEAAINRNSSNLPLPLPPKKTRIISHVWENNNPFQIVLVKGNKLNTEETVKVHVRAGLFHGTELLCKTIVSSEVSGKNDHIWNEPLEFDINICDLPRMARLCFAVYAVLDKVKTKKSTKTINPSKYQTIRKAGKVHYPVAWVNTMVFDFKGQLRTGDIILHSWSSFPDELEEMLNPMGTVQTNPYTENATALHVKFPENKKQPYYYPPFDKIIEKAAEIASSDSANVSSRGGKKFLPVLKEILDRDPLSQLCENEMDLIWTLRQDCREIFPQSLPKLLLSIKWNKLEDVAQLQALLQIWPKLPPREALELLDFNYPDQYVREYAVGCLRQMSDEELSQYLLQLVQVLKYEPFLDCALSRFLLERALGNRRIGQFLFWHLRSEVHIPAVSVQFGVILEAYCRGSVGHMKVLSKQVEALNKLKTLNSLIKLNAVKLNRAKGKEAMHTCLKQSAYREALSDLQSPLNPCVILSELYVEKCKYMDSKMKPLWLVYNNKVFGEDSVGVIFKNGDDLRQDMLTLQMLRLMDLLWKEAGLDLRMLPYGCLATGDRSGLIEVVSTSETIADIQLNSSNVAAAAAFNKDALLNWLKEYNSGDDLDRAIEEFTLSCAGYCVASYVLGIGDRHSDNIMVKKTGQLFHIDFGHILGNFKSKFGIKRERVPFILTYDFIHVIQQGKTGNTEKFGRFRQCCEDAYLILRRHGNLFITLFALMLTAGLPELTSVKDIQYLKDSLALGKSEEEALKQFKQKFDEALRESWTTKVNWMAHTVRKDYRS
Procedure: as §1, §2, §3
PI3Kβ BV-949 p85(iSH2)-Gly linker-p110b (Full-Length)-C-Term His Tag
as §4

Row | SMILES | IC50 (PI3K delta) [nM] | IC50 (PI3K gamma) [nM] | IC50 (PI3K alfa) [nM] | IC50 (PI3K beta) [nM]
1 | COc1cc(-c2ccc3nc(C)c(-c4cnc(N)c(C(F)(F)F)c4)n3n2)ccc1OCCN [Example 24, 5-{6-[4-(2-Amino-ethoxy)-3-methoxy-phenyl]-2-methyl-imidazo[1,2-b]pyridazin-3-yl}-3-trifluoromethyl-pyridin-2-ylamine] | 52 | 211 | 39 | 51
2 | COc1cc(-c2ccc3nc(C)c(-c4cnc(N)c(C(F)(F)F)c4)n3n2)ccc1OCCNC(=O)c1cccnc1 [Example 31] | 748 | 4320 | 38 | > 9100
3 | COc1ccc(-c2c(C)nc3ccc(-c4ccc(OC)c(OC)c4)nn23)cn1 [Example 3] | 514 | – | 96.4 | 2310
4 | COc1ccc(S(=O)(=O)n2ccc(-c3c(C)nc4ccc(-c5ccc(OC)c(OC)c5)nn34)n2)cc1 [Example 22, 6-(3,4-Dimethoxy-phenyl)-3-[1-(4-methoxy-benzenesulfonyl)-1H-pyrazol-3-yl]-2-methyl-imidazo[1,2-b]pyridazine] | 889 | 1500 | 781 | > 9100
5 | COc1ccc(-c2ccc3nc(C)c(-c4ccn(S(=O)(=O)c5cccc(C#N)c5)n4)n3n2)cc1OC [Example 23, 3-{3-[6-(3,4-Dimethoxy-phenyl)-2-methyl-imidazo[1,2-b]pyridazin-3-yl]-pyrazole-1-sulfonyl}-benzonitrile] | 124 | 511 | 136 | > 9100
6 | COc1ccc(-c2ccc3nc(C)c(-c4cc[nH]n4)n3n2)cc1OC [Example 20, 6-(3,4-Dimethoxy-phenyl)-2-methyl-3-(1H-pyrazol-3-yl)-imidazo[1,2-b]pyridazine] | 1390 | 358 | 220 | 3240
7 | COc1ccc(-c2ccc3nc(C)c(-c4ccc(F)nc4)n3n2)cc1OC [Example 1, 6-(3,4-Dimethoxy-phenyl)-3-(6-fluoro-pyridin-3-yl)-2-methyl-imidazo[1,2-b]pyridazine] | 1350 | 241 | 206 | 1680
8 | COc1ccc(C(=O)NCCOc2ccc(-c3ccc4nc(C)c(-c5cnc(N)c(C(F)(F)F)c5)n4n3)cc2OC)cc1OC [Example 37] | > 9100 | 2300 | 233 | > 9100
9 | COc1ccc(-c2ccc3nc(C)c(-c4ccc(N5CCOCC5)nc4)n3n2)cc1OC [Example 5] | 1090 | 613 | 111 | 1570

Further lines, results first:

Row | IC50 (PI3K delta) [nM] | IC50 (PI3K gamma) [nM] | IC50 (PI3K alfa) [nM] | IC50 (PI3K beta) [nM] | SMILES
10 | 372 | 503 | 30 | > 9100 | COc1cc(-c2ccc3nc(C)c(-c4cnc(N)c(C(F)(F)F)c4)n3n2)ccc1OCCNC(=O)C(C)C [Example 81]
11 | 174 | 65 | 40 | > 9100 | COCCOCCOCCOc1ccc(-c2ccc3nc(C)c(-c4cnc(N)c(C(F)(F)F)c4)n3n2)cc1OC [Example 84, 5-[6-(3-Methoxy-4-{2-[2-(2-methoxy-ethoxy)-ethoxy]-ethoxy}-phenyl)-2-methyl-imidazo[1,2-b]pyridazin-3-yl]-3-trifluoromethyl-pyridin-2-ylamine]
12 | 4130 | 3310 | 2320 | > 9100 | COc1cc(-c2ccc3nc(C)c(-c4cnc(N)c(C(F)(F)F)c4)n3n2)ccc1OCCNC(=O)Nc1cccc(C(F)(F)F)c1 [Example 93, 1-(2-{4-[3-(6-Amino-5-trifluoromethyl-pyridin-3-yl)-2-methyl-imidazo[1,2-b]pyridazin-6-yl]-2-methoxy-phenoxy}-ethyl)-3-(3-trifluoromethyl-phenyl)-urea]
13 | 164 | 87 | 19 | 4010 | COc1cc(-c2ccc3nc(C)c(-c4cnc(N)c(C(F)(F)F)c4)n3n2)ccc1OCCCNC(=O)C(C)C [Example 82]
14 | 273 | 518 | 83 | 6260 | Cc1nc2ccc(-c3ccc(OCCCN4CCCC4=O)cc3)nn2c1-c1cnc(N)c(C(F)(F)F)c1 [Example 105, 1-(3-{4-[3-(6-Amino-5-trifluoromethyl-pyridin-3-yl)-2-methyl-imidazo[1,2-b]pyridazin-6-yl]-phenoxy}-propyl)-pyrrolidin-2-one]
15 | > 9100 | 6860 | 1640 | > 9100 | COc1cccc(NC(=O)NCCCOc2cc(-c3ccc4nc(C)c(-c5cnc(N)c(C(F)(F)F)c5)n4n3)ccc2OC)c1 [Example 89, 1-(3-{5-[3-(6-Amino-5-trifluoromethyl-pyridin-3-yl)-2-methyl-imidazo[1,2-b]pyridazin-6-yl]-2-methoxy-phenoxy}-propyl)-3-(3-methoxy-phenyl)-urea]
16 | > 9100 | > 9100 | 9090 | > 9100 | COc1cc(-c2ccc3nc(C)c(-c4ccc(S(C)(=O)=O)cc4)n3n2)ccc1OC1CCN(C(=O)OC(C)(C)C)CC1 [Example 98, 4-{4-[3-(4-Methanesulfonyl-phenyl)-2-methyl-imidazo[1,2-b]pyridazin-6-yl]-2-methoxy-phenoxy}-piperidine-1-carboxylic acid tert-butyl ester]
17 | 966 | 1330 | 118 | > 9100 | COc1ccc(-c2ccc3nc(C)c(-c4cnc(N)c(C(F)(F)F)c4)n3n2)cc1OCCCNC(=O)c1ccncc1 [Example 97, N-(3-{5-[3-(6-Amino-5-trifluoromethyl-pyridin-3-yl)-2-methyl-imidazo[1,2-b]pyridazin-6-yl]-2-methoxy-phenoxy}-propyl)-isonicotinamide]
18 | > 9100 | 933 | 294 | > 9100 | COc1cc(-c2ccc3nc(C)c(-c4cnc(N)c(C(F)(F)F)c4)n3n2)ccc1OCCNC(=O)c1cc(OC)c(OC)c(OC)c1 [Example 41]
19 | 397 | 1160 | 276 | > 9100 | COc1ccc(-c2ccc3nc(C)c(-c4ccnc(-n5ccnc5)n4)n3n2)cc1OC [Example 83, 6-(3,4-Dimethoxy-phenyl)-3-(2-imidazol-1-yl-pyrimidin-4-yl)-2-methyl-imidazo[1,2-b]pyridazine]
20 | 2270 | 6790 | 985 | 7080 | Cc1nc2ccc(-c3ccc4c(c3)OCO4)nn2c1-c1cnc(N)c(C(F)(F)F)c1 [Example 108, 5-(6-Benzo[1,3]dioxol-5-yl-2-methyl-imidazo[1,2-b]pyridazin-3-yl)-3-trifluoromethyl-pyridin-2-ylamine]
